Assay results from patent US20230391752A1, “PYRROLIDINE-3-CARBOXAMIDE DERIVATIVES AND RELATED USES” (Chulalongkorn University, priority 2020, published 2023).

How the values were obtained:
[1] = biological target: HBV core protein variant T33N (Hepatitis B virus genotype D subtype ayw, UniProt P03146, T33N); experiment: Anti-HBV activity in core protein variants: T33N; assay type: cell-based; details: relative to the wild type construct
[2] = biological target: HBV core protein variant D29G (Hepatitis B virus genotype D subtype ayw, UniProt P03146, D29G); experiment: Anti-HBV activity in core protein variants: D29G; assay type: cell-based; details: relative to the wild type construct
[3] = biological target: HBV core protein variant T109M (Hepatitis B virus genotype D subtype ayw, UniProt P03146, T109M); experiment: Anti-HBV activity in core protein variants: T109M; assay type: cell-based; details: relative to the wild type construct
[4] = biological target: T1, HBV capsid (Hepatitis B virus genotype D subtype ayw, UniProt P03146); experiment: Mechanistic study in stably HBV expressed HepG2.2.15 cells (capsid, encapsidated DNA/RNA, core protein blots); assay type: cell-based; details: HepG2.2.15, 6 days; for HBV capsid (formation of DNA- and RNA-devoid capsid): various concentrations; for Intracellular HBV core protein level: western blot
T1 construct: expressed in transfected cells; host or cells: HepG2.2.15
Method: The stably HBV expressed HepG2.2.15 cells were treated with test compounds, at various concentrations in culture medium, at 37° C. for three days. After that the medium was removed and fresh medium containing the compound was added to the cells for another 3 days. After 6 days of treatment, cellular lysates from the treated cells were assessed by non-denatured agarose gel electrophoresis. HBV capsid was detected by western blot with monoclonal anti-HBV core. Encapsidated HBV DNA and RNA were detected by southern blot and northern blot. Intracellular HBV core protein was assessed by western Blot with a monoclonal mouse anti-HBV core. β-actin protein assessed by western blot was used as an internal control.

[5] = biological target: HBV core protein variant I105T (Hepatitis B virus genotype D subtype ayw, UniProt P03146, I105T); experiment: Anti-HBV activity in core protein variants: I105T; assay type: cell-based; details: relative to the wild type construct
[6] = biological target: HBV core protein variant F23Y (Hepatitis B virus genotype D subtype ayw, UniProt P03146, F23Y); experiment: Anti-HBV activity in core protein variants: F23Y; assay type: cell-based; details: relative to the wild type construct
[7] = biological target: HBV core protein variant Y118F (Hepatitis B virus genotype D subtype ayw, UniProt P03146, Y118F); experiment: Anti-HBV activity in core protein variants: Y118F; assay type: cell-based; details: relative to the wild type construct
[8] = biological target: HBV core protein variant T109I (Hepatitis B virus genotype D subtype ayw, UniProt P03146, T109I); experiment: Anti-HBV activity in core protein variants: T109I; assay type: cell-based; details: relative to the wild type construct
[9] = biological target: T2, HBV construct U95551 (wild-type) (Hepatitis B virus genotype D subtype ayw, UniProt P03146); assay type: cell-based; details: relative to the wild type construct
T2 construct: expressed in transfected cells; host or cells: HepG2

[10] = Cytotoxicity (MTT) in HepG2.2.15 cells; assay type: cell-based; details: human, 6 days treatment, read-out: HepG2.1.15 cytotoxicity (CC50)
Outline: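 Adhered HepG2.2.15 cells were exposed to compounds for 6 days, then given […] MTT in serum-free medium for 2 h. Formazan dissolved in DMSO was read at 570 nm. CC50 (50% cell death) came from four-parameter fitting of viability versus concentration.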

[11] = system: HBV; experiment: In vitro anti-HBV activity in HepG2.2.15 cell line (intracellular HBV DNA by qPCR at 1 μM); assay type: cell-based; details: Hepatitis B virus, 144 h; HepG2.2.15 cells, 1 μM compound, 6 days, intracellular HBV DNA as percentage compared to vehicle control (0.5% DMSO)
Outline: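 HepG2.2.15 cells given compound at 1 μM (0.5% DMSO final) for 3 days, then fresh compound-containing medium for 3 more days. After 6 days intracellular HBV DNA measured by qPCR. Expressed as % of 0.5% DMSO vehicle control and binned into letter ranges.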

[12] = system: HBV; experiment: Effect on intrahepatic HBV DNA levels in HepG2.2.15 cells (EC50); assay type: cell-based; details: Hepatitis B virus, 144 h, 6 days, intrahepatic HBV DNA by qPCR, read-out: Anti-HBV DNA (EC50)
Outline: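 Over 6 days at 37° C., HepG2.2.15 cells were treated with compound in 10% FCS medium, refreshed with compound after day 3. Intracellular HBV DNA was quantified by qPCR from cell lysates, and EC50 fitted by nonlinear regression relative to no-drug controls.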

[13] = biological target: T3, HBV core protein (Cp149) (Hepatitis B virus genotype D subtype ayw, UniProt P03146); experiment: HBV capsid assembly by size exclusion chromatography (SEC); assay type: biochemical; details: 50 μM compound, 15 μM Cp149, 16 hours at 21° C.
T3 construct: HBV core C-terminally truncated protein (HBV Cp149); made in house

[14] = biological target: T3, HBV core protein (Cp149); experiment: HBV capsid assembly by electron microscopy (EM); assay type: biochemical; details: 50 μM compound, 15 μM Cp149, negative stain
[15] = system: HBV genotype D; experiment: HBV-infected primary human hepatocytes (PHH); assay type: cell-based, Hepatitis B virus; details: for HBeAg in PHH / HBsAg in PHH: treatment scheme 1; for HBV DNA in PHH: treatment scheme 1 (compound added simultaneously with infection media, 6 days); for cccDNA establishment in PHH: treatment scheme 1, southern blot
Method: Primary human hepatocytes (PHH) were infected with HBV genotype D produced from HepG2.2.15 cell line on day 1 after plating. Subsequently, the PHH were treated with various concentrations of compounds into 2 different treatment schemes. For treatment scheme 1, the compounds were added into PHH simultaneously with infection media, and incubated for additional 6 days. For treatment scheme 2, the compounds were added into PHH at day 3 after infection, and further incubated for 6 days. After treatment, the cell culture supernatants were collected for the determinations of HBV DNA by qPCR, pgRNA by RT-PCR, HBsAg and HBeAg by ELISA, and cell viability by CCK-8. The cells were harvested for detection of intracellular cccDNA by southern blot.

[16] = system: HBV genotypes A to D; assay type: cell-based; details: transfected HepG2 cells
[17] = Pharmacokinetic study in rats; assay type: in vivo, male Sprague-Dawley rats
Method: (§1) Test compounds were administered to male Sprague-Dawley rats and male Beagle dogs by oral (PO) and intravenous (TV) administration. For TV dosing, test compounds were dosed at 0.2 to 0.5 mg/kg using a formulation of 10% dimethyl sulfoxide in 20% hydroxypropyl beta-cyclodextrin solution via IV bolus. For PO dosing, test compounds were dosed at 0.3 to 2.0 mg/kg using a formulation of 40% polyethylene glycol 400 in water via oral gavage. Blood samples were collected at pre-dose and various time points up to 24 hours post-dose, and centrifuged to obtain plasma samples. The plasma concentrations of test compounds were quantified by LC-MS/MS methods. The relevant pharmacokinetic parameters (Table D) were calculated via non-compartmental analysis using WinNonlin (Phoenix™, version 8.3).

[18] = Pharmacokinetic study in dogs; assay type: in vivo, male Beagle dogs
Method: as §1

CCOC(=O)C1=C(CN2CCOCC2)NC(c2nccs2)=NC1c1ccc(F)cc1Br (stereo not shown) [GLS4, reference compound]
Fold change in EC50, T33N [1]: D (D>15) | Fold change in EC50, D29G [2]: B (B=1-5) | Fold change in EC50, T109M [3]: B (B=1-5) | HBV capsid (formation of DNA- and RNA-devoid capsid) [4]: induced formation of DNA- and RNA-devoid capsid | Intracellular HBV core protein level [4]: reduced intracellular HBV core protein level in the concentration-dependent manner | Fold change in EC50, I105T [5]: B (B=1-5) | Fold change in EC50, F23Y [6]: C (C=5-15) | Fold change in EC50, Y118F [7]: B (B=1-5) | Fold change in EC50, T109I [8]: C (C=5-15) | Fold change in EC50, U95551 (wild-type) [9]: B (B=1-5)

C[C@H]1[C@@H](C(=O)Nc2cc(F)c(F)c(F)c2)CCN1C(=O)c1[nH]c2ccccc2c1Cl [Example 42, (2S,3S)-1-(3-chloro-1H-indole-2-carbonyl)-2-methyl-N-(3,4,5-trifluorophenyl)pyrrolidine-3-carboxamide]
CC50 at 6 days [10]: > 25 µM | activity at 1 µM [11]: < 45% | EC50 [12]: 0.05 to 0.3 µM | HBV capsid (formation of DNA- and RNA-devoid capsid) [4]: dose-dependently accelerated formation of DNA- and RNA-devoid capsid | Intracellular HBV core protein level [4]: had no effect on intracellular HBV core protein level | Size of induced capsids based on SEC retention times [13]: capsid retention times between BAY 41-4109 and NVR 3-778 | Capsid morphology by EM [14]: resulted in larger but normal shape spheres | HBeAg in PHH [15]: inhibited | HBsAg in PHH [15]: inhibited | HBV DNA in PHH [15]: inhibited | cccDNA establishment in PHH [15]: inhibited

Cc1cc(NC(=O)[C@H]2CCN(C(=O)c3ccc(-c4c(C)ncnc4C)[nH]3)[C@H]2C)ccc1F [Example 149, (2S,3S)-1-(5-(4,6-dimethylpyrimidin-5-yl)-1H-pyrrole-2-carbonyl)-N-(4-fluoro-3-methylphenyl)-2-methylpyrrolidine-3-carboxamide]
CC50 at 6 days [10]: 10 to 25 µM | Fold change in EC50, T33N [1]: D (D>15) | Fold change in EC50, D29G [2]: B (B=1-5) | activity at 1 µM [11]: < 45% | Fold change in EC50, T109M [3]: A (A<1) | Anti-HBV activity across HBV genotypes [16]: effective across all HBV genotypes tested (A to D) | EC50 [12]: < 0.05 µM | Fold change in EC50, I105T [5]: B (B=1-5) | Fold change in EC50, F23Y [6]: C (C=5-15) | Size of induced capsids based on SEC retention times [13]: induced capsids similar in size to NVR 3-778 | HBeAg in PHH [15]: inhibited | HBsAg in PHH [15]: inhibited | HBV DNA in PHH [15]: inhibited | cccDNA establishment in PHH [15]: inhibited | Fold change in EC50, Y118F [7]: A (A<1) | Fold change in EC50, T109I [8]: A (A<1) | Fold change in EC50, U95551 (wild-type) [9]: B (B=1-5) | CL (mL/min/kg) Rat ([17]; IV 0.2 to 0.5 mg/kg): 20.0 mL/min/kg | F (%) Rat ([17]; PO 0.3 to 2.0 mg/kg): 44% | Vd ([17]; male, Sprague-Dawley, plasma, rat, IV 0.2 to 0.5 mg/kg, read-out: Vd,ss (L/kg) Rat): 2.92 L/kg | half-life ([17]; male, Sprague-Dawley, rat, plasma, read-out: t1/2 (h) Rat (converted)): 6.5 h | F (%) Dog ([18]; PO 0.3 to 2.0 mg/kg): 63% | half-life ([18]; male, Beagle, dog, plasma, read-out: t1/2 (h) Dog (converted)): 4.5 h | clearance ([18]; male, Beagle, plasma, dog, IV 0.2 to 0.5 mg/kg, read-out: CL (mL/min/kg) Dog): 5.1 mL/min/kg | Vd ([18]; male, Beagle, plasma, dog, IV 0.2 to 0.5 mg/kg, read-out: Vd,ss (L/kg) Dog): 1.3 L/kg
